In ChEMBL document CHEMBL5726787, “Compounds, compositions and methods” (2018):

Biological target: T1, Receptor-interacting serine/threonine-protein kinase 1 (Homo sapiens, UniProt Q13546)
T1 sequence (Q13546 whole entry): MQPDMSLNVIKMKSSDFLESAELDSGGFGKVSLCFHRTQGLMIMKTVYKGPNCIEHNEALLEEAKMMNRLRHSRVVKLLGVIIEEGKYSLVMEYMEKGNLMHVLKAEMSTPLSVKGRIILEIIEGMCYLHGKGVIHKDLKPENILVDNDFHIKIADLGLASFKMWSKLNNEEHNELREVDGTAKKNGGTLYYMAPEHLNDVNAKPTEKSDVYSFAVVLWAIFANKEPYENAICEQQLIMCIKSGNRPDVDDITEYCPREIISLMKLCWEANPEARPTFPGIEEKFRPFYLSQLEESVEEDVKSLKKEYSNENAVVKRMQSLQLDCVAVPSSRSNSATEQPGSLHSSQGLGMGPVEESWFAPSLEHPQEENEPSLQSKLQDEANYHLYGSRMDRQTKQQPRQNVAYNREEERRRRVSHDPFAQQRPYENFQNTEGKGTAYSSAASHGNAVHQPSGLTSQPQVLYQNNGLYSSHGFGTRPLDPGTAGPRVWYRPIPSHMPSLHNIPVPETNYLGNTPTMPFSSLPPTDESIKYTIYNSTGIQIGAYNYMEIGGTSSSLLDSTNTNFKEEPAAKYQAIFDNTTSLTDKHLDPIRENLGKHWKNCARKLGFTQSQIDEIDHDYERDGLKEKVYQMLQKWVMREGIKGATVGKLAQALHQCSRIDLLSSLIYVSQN
Experiment: […]: Test compounds were diluted in DMSO and 0.1 μL of solution was dispensed to each well of a 384-well white solid microplate. The assay buffer was 50 mM HEPES pH 7.5, 50 mM NaCl, 30 mM MgCl2. The buffer was supplemented with 0.02% CHAPS, 0.01% of Pluronic F127, 0.1 mg/mL BSA and 1 mM DTT. MnCl2, 5 mM, was included in the assay buffer on the day of the experiment. […] 5 μL of enzyme and 5 μL of ATP were added to the plate at twice the final assay concentration and incubated at room temperature for 3 hours. Following this reaction, 10 μL of ADP-Glo reagent (Promega) was added to each well and incubated for 40 min at room temperature. This stops the kinase reaction and depletes any remaining ATP. 20 μL of ADP-Glo detection reagent was then added to each well and incubated at room temperature for at least 15 minutes. The detection reagent converts ADP to ATP and introduces luciferase and luciferin to detect ATP. The luminescence is then measured with the Envision (PerkinElmer) plate reader. Test compound inhibition was expressed as percent inhibition of internal assay controls. For concentration response curves, normalized data is fit and IC50 determined using XL-fit (IDBS) for Excel. The IC50 were averaged to determine a mean value, for a minimum of two independent experiments.

IC50 [nM]	SMILES
0.1 to 1000	CN1C(=O)C(NC(=O)c2nnc(Cc3ccccc3)[nH]2)C[C@@H](F)c2ccccc21 (some centres not stated)
0.1 to 1000	CN1C(=O)C(NC(=O)c2nnc(Cc3ccccc3)[nH]2)C[C@H](F)c2ccccc21 (some centres not stated)
